Reference: ChEMBL document CHEMBL1201862, “PubChem BioAssay data set” (2004)
Active and inactive are the calls of the source.

Tests used:
[1] = biological target: Potassium voltage-gated channel subfamily KQT member 2 (Rattus norvegicus, UniProt O88943); experiment: KCNQ2 potassium channel inhibitors, dose response, cell-based, automated electrophysiology, set II, rat KCNQ2 (AID 588637); format: functional
[2] = biological target: T1, Replicative DNA helicase DnaB (Mycobacterium tuberculosis, UniProt P9WMR3); experiment: DnaB intein splicing inhibitors, dose response, biochemical, cell-free fluorescence (AID 449749); format: functional
T1 sequence (P9WMR3 whole entry): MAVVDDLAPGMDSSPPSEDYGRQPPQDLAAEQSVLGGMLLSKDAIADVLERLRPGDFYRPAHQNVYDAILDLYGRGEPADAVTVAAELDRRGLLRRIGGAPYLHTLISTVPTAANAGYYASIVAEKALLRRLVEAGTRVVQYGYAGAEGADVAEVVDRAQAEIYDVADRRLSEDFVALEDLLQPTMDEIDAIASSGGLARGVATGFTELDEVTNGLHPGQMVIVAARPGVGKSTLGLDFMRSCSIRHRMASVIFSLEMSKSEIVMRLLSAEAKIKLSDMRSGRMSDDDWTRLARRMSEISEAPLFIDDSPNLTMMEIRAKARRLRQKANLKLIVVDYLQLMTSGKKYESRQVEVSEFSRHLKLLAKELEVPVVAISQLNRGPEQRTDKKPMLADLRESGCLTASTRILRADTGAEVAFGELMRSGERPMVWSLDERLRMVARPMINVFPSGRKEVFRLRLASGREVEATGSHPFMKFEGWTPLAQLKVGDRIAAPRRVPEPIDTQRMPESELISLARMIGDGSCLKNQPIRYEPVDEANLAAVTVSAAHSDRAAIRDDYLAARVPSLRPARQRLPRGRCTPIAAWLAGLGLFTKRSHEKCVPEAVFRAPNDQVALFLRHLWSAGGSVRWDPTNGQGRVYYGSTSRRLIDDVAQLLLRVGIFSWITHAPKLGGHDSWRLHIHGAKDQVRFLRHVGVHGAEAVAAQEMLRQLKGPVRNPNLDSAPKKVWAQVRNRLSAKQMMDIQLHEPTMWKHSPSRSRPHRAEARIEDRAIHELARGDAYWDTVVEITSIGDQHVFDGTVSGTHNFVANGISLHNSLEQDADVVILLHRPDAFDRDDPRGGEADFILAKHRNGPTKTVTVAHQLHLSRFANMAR

[3] = A Cell Based Secondary Assay to Explore Cytotoxicity in THP-1 Cells of Compounds that Modulate Mycobacterium tuberculosis in Media Containing Glycerol versus Media without Glycerol (2).; format: functional
Protein RecA = biological target: T2, Protein RecA (Mycobacterium tuberculosis, UniProt P9WHJ3); experiment: Fluorescence Cell-Free Homogeneous Dose Retest to Identify Inhibitors of RecA-Intein Splicing Activity. [Related pubchem assays (depositor defined):AID2097, AID2223, AID489010, AID492950]; format: functional
T2 sequence (P9WHJ3 whole entry): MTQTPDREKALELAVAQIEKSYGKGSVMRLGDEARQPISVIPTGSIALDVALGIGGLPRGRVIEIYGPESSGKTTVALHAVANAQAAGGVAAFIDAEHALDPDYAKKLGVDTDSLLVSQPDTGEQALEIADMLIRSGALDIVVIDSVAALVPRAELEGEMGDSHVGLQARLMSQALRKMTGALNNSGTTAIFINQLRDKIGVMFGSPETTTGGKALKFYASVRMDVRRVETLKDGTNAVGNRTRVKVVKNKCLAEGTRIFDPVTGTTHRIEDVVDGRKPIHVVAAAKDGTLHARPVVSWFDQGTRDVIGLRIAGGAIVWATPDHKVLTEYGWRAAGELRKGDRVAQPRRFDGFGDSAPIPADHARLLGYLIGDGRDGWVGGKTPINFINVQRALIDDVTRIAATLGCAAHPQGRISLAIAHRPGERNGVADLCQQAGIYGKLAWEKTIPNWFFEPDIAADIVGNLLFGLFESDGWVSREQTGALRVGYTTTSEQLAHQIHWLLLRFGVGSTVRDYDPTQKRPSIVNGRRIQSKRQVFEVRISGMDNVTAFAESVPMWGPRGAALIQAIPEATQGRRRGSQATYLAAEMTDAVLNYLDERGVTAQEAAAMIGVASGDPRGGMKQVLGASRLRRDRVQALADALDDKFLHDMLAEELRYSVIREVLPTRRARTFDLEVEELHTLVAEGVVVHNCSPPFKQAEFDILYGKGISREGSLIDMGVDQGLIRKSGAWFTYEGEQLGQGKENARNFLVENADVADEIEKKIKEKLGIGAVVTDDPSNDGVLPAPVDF

[4] = Vero cell cytotoxicity, cytotoxicity control for M. tuberculosis inhibitor project, purified and synthesized samples, set 3 (AID 504684); format: functional
[5] = biological target: Hepatocyte nuclear factor 4-alpha (Homo sapiens, UniProt P41235); format: functional, cell-based;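 also: biochemical luminescence-based dose-response counterscreen measuring inhibition of HNF4 dimerization, run alongside a screen for blockers of ABHD5–perilipin-5 interaction; split luciferase complementation of HNF4 fusion proteins in cell lysate measuring dimerization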
[6] = biological target: T3, Aryl hydrocarbon receptor (Homo sapiens, UniProt P35869); settings: Potency;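 also: confirmatory quantitative high-throughput screen measuring activation of the AhR signaling pathway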
T3 sequence (P35869 whole entry): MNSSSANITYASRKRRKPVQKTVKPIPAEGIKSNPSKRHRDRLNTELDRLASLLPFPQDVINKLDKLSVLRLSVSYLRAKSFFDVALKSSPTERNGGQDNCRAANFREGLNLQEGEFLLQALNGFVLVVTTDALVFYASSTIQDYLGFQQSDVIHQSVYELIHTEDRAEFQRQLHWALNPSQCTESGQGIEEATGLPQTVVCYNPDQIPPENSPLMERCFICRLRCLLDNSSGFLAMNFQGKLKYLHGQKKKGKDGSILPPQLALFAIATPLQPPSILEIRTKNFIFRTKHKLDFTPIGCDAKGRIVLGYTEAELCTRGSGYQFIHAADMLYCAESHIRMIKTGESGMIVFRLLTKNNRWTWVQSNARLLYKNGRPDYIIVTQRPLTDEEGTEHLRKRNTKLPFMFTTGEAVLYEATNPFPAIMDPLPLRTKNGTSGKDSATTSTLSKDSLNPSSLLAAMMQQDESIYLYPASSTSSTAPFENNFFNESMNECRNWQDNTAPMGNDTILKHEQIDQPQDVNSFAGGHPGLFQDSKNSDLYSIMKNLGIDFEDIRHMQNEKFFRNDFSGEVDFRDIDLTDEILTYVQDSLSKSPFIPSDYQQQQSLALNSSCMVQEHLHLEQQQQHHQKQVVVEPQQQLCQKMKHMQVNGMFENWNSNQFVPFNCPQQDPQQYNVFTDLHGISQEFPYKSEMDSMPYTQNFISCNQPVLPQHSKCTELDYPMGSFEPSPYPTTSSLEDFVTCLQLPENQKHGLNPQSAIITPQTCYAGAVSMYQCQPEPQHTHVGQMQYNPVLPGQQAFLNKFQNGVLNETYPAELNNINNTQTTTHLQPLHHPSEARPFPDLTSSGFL

Chain of Hepatocyte nuclear factor 4-alpha (P41235 whole entry, the tested form may be a part): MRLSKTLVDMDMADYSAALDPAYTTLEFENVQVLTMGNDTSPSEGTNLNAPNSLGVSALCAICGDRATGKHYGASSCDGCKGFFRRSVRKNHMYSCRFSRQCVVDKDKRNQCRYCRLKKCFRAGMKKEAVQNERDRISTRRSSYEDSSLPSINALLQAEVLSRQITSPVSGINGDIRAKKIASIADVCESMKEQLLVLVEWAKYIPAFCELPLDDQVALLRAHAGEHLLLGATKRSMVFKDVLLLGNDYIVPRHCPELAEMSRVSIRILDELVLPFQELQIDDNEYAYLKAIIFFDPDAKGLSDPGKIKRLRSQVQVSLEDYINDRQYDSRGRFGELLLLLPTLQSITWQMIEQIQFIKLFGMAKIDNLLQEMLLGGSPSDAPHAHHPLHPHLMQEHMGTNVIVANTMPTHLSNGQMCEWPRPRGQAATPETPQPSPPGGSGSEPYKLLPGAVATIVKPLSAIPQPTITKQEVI
Chain of Potassium voltage-gated channel subfamily KQT member 2 (O88943 whole entry): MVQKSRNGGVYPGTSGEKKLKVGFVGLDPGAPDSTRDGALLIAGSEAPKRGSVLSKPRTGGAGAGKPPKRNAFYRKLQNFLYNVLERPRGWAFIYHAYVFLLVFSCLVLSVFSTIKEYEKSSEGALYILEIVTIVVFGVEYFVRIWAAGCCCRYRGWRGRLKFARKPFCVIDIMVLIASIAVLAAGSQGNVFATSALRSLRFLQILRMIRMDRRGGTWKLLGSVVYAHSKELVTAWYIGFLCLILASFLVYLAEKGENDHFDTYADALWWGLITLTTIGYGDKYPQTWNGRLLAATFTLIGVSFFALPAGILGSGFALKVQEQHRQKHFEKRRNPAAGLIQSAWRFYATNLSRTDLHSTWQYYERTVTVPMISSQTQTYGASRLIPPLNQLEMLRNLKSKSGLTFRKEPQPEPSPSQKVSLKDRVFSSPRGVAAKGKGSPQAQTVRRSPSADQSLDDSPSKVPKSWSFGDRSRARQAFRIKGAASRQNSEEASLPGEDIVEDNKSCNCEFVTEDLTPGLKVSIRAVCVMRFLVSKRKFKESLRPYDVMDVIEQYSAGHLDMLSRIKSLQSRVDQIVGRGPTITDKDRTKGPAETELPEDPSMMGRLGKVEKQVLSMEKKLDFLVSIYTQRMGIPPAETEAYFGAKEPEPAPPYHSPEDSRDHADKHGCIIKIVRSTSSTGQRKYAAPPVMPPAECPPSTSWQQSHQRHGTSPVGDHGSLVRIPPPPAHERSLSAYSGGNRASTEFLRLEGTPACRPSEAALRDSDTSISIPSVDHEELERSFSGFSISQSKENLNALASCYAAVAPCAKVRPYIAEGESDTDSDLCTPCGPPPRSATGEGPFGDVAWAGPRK

O=C(OCC(=O)N(CCc1ccccc1)Cc1ccccc1)c1ccccc1O
IC50 [1]: 1.83 µM (active)

CCOC(=O)C(C)Sc1ncnc2c1nnn2-c1ccc(F)cc1 (configuration not stated)
AC50 [2]: 10.4 µM (active)
CC50 [3]: 55.2 µM (active)
EC50 (Protein RecA): 10.9 µM (active)
CC50 [4]: 67.1 µM (active)

O=C(NC1CCCCC1)C(c1cccc2ccccc12)n1c(=O)c(-c2ccco2)nc2ccccc21 (configuration not stated)
IC50 [5]: 1.48 µM (active)

CC1(COc2ccc(CC3SC(=O)NC3=O)cc2)CCCCC1 (configuration not stated) [CIGLITAZONE]
AC50 [6]: 56.2 µM (inconclusive)
